Measured values reported in patent publication US20170080040A1, “DECOCTION OF OLIVE LEAVES” (priority 2014, published 2017).

Experiments:
mice CD-1 males = assay: Stimulating activity: effect on loss of straightening reflex (sleep) induced by ethanol in mice; format: in vivo; settings: caffeine 60 mg/kg
Excerpt: The antioxidant and anti-radical activity was studied on decoctions 1 and 2, respectively, by testing the decolorization of the radical cation ABTS^• (2.2′-azino-bis-3-ethylbenzothiazoline-6-sulphonic acid) (Re et al.—Free Rad. Biol. Med. 26: 1231, 1999) and by testing the neutralization of the radical 1,1-diphenyl-2-picrylhydrazyl (DPPH^•) (Brand-Williams et al.—Food Sci. Technol. 28: 25, 1995). Finally, decoctions 1 and 2 were studied for potential stimulating activity, verifying the effect on sleep induced by ethanol in mice according to the method reported by Yacoubi et al. (Yacoubi et al. —Neuropharmacology 45: 977, 2003).
The stimulating activity of the decoctions of olive leaves was evaluated on the basis of the reduction of the hypnotic effect induced by ethanol in the mice (Yacoubi et al.—Neuropharmacology 45: 977, 2003). The animals were housed in groups of 5 and kept for at least a week in the same place where the test was carried out, at a constant temperature (23±1° C.) and relative humidity (50-60%), with a fixed artificial light cycle (07.00-19.00). The experiment was carried out in conformity with the laws in force that regulate the use of animals for scientific purposes (Italian Legislative Decree 116 of 27 Jan. 1992 and the Directives of the European Communities Council of 24 Nov. 1986/86/609/EEC).
At the moment of the experiment, each animal was positioned individually in a cage. The lyophilized decoctions, dissolved in water, were administered to the mice (dose: 120 mg/kg; volume of solution administered: 10 ml/kg) by means of gastric intubation, 30 minutes before the inter-peritoneal injection of an aqueous composition of ethanol at 20% (v/v; 4 g/kg). The control animals were administered 10 ml/kg of physiological solution. The induction of ethanol induced sedation in the animals, with the loss of the straightening reflex. In every animal both the duration of the latency phase that elapsed between the injection of the ethanol and the loss of the straightening reflex, and the duration of the loss of the straightening reflex were measured. The stimulating activity was evaluated on the basis of both the increase in the latency phase and also on the reduction in the duration of the loss of the straightening reflex. The effect was compared to that of caffeine, at a dose of 60 mg/kg. Each treatment group consisted of 10 animals.
The values of IC50 were calculated on the basis of the linear regression of the straight lines that put the logarithm of the concentrations tested in relation to the reduction of the absorbance measured, using the appropriate function of an electronic spreadsheet. The in vivo data were analyzed according to the Student's t-test, accepting as significant the values of p<0.05.
The stimulating activity of decoctions 1 and 2 was evaluated in the mice, after oral administration of 120 mg/kg of lyophilized decoction (corresponding to 9.6 and 11.9) ml of decoction 1 and 2 liquid/kg), verifying the effect on the loss of straightening induced by the intraperitoneal injection of ethanol (4 g/kg). The parameters evaluated were the increase in the latency phase between the ethanol injection and the loss of the straightening reflex, and the duration of the loss of the straightening reflex (interval between the loss and the re-acquisition of the straightening reflex). As a reference compound, caffeine was used at a dose of 60 mg/kg (corresponding to an average dose of coffee equal to about 40 ml/kg).

[1] = Antioxidant activity: decoloring test of the cationic radical ABTS•+; settings: mg lyophilized preparation per ml; absorbance at 734 nm; four determinations
Method: Biol. Med. 26: 1231, 1999) and by testing the neutralization of the radical 1,1-diphenyl-2-picrylhydrazyl (DPPH^•) (Brand-Williams et al.—Food Sci. Technol. 28: 25, 1995). […] (Yacoubi et al. —Neuropharmacology 45: 977, 2003). The antioxidant activity was evaluated according to the method reported by Re and collaborators (Re et al.—Free Rad. Biol. Med. 26: 1231, 1999). […] In the presence of an antioxidant the ABTS^•+ is reduced to colorless ABTS, determining a decoloring of the solution in which it is dissolved, which can be measured by spectrophotometry quantifying the absorbance at 734 nm. […] The antioxidant activity, expressed as IC50, was compared to that of Trolox, a similar water-soluble to vitamin E, and to that of an infusion of green tea, prepared with 10 g of leaves in 1 liter of water (from which 4.385 g of lyophilized infusion were obtained). For every sample four determinations were carried out and the result was expressed as average±standard deviation of the analyses done. The values of IC50 were calculated on the basis of the linear regression of the straight lines that put the logarithm of the concentrations tested in relation to the reduction of the absorbance measured, using the appropriate function of an electronic spreadsheet. The in vivo data were analyzed according to the Student's t-test, accepting as significant the values of p<0.05. […]

[2] = mice, oral 30 min before ethanol 4 g/kg i.p., decoctions 120 mg/kg lyophilized, n = 10
[3] = mice, oral, decoctions 120 mg/kg, ethanol 4 g/kg i.p.

For `Cn1c(=O)c2c(ncn2C)n(C)c1=O` [Caffeine, caffeine], the “reduction in the duration of the loss of the straightening reflex” value (mice CD-1 males; given as positive reduction, decoctions 120 mg/kg) was 43%, the “Duration Average ± E.S. (of the loss of the straightening reflex)” value (mice CD-1 males; [2]) was 23.5 ± 3.3 min and the “Latency Average ± E.S. (between ethanol injection and loss of the straightening reflex)” value (mice CD-1 males; [2]) was 215.7 ± 18.2 s. For the same compound, the “Duration Difference (%) with respect to the controls” value (mice CD-1 males; [3]) was −43% and the “Latency Difference (%) with respect to the controls (increase in the latency period)” value (mice CD-1 males; [3]) was 48%.
For `Cc1c(C)c2c(c(C)c1O)CCC(C)(C(=O)O)O2` (stereo not drawn) [Trolox], the “Lyophilized Decoction IC50 Average ± D.S. (antioxidant activity, ABTS)” value [1] was 30 mg/L.
